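A five-concentration, 48-hour dose response in 96-well plates underlies each endpoint, interpolated linearly between surrounding concentrations. GI50 = concentration required for 50% inhibition of growth. TGI: concentration producing complete growth inhibition.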
Tests used:
Assay in all cases: inhibition of tumour cell growth, NCI panel, 48 h
A498 renal = tested on: A498 renal
ACHN renal = tested on: ACHN renal
HL-60(TB) leukemia = tested on: HL-60(TB) leukemia
KM12 colon = tested on: KM12 colon
M14 melanoma = tested on: M14 melanoma
OVCAR-5 ovarian = tested on: OVCAR-5 ovarian
RPMI-8226 leukemia = tested on: RPMI-8226 leukemia
RXF 393 renal = tested on: RXF 393 renal
SF-539 CNS = tested on: SF-539 CNS
SK-MEL-5 melanoma = tested on: SK-MEL-5 melanoma

Structure (SMILES) | TGI (A498 renal) | TGI (ACHN renal) | TGI (HL-60(TB) leukemia) | TGI (KM12 colon) | TGI (M14 melanoma) | TGI (OVCAR-5 ovarian) | TGI (RPMI-8226 leukemia) | TGI (RXF 393 renal) | TGI (SF-539 CNS) | TGI (SK-MEL-5 melanoma) | GI50 (A498 renal) | GI50 (ACHN renal) | GI50 (HL-60(TB) leukemia) | GI50 (KM12 colon) | GI50 (M14 melanoma) | GI50 (OVCAR-5 ovarian) | GI50 (RPMI-8226 leukemia) | GI50 (RXF 393 renal) | GI50 (SF-539 CNS) | GI50 (SK-MEL-5 melanoma)
O/N=C1/CCCC/C1=C/C=C/c1ccccc1 | 41.2 µM | 72.5 µM | 41.2 µM | 47.1 µM | 40.9 µM | 76 µM | 71.7 µM | 41.5 µM | 38.3 µM | 30.2 µM |  |  |  |  |  |  |  |  |  | 
Cc1cc(S(=O)(=O)/N=C(\N)Nc2cccc(O)c2)c(SCc2ccccc2)cc1Cl | 35.7 µM | 39.4 µM | 62.9 µM | 54.4 µM | 26.7 µM | 53 µM | > 100 µM | 39.9 µM | 38.8 µM | 29.6 µM | 17.8 µM | 18.2 µM | 12.9 µM | 15.6 µM | 11.1 µM | 23.4 µM | 5.81 µM | 16.2 µM | 18 µM | 12.1 µM
c1ccc2c(c1)[nH]c1cnc3c4ncccc4[nH]c3c12 | > 100 µM | > 100 µM | > 100 µM | > 100 µM | > 100 µM | > 100 µM | > 100 µM | > 100 µM | > 100 µM | > 100 µM |  |  |  |  |  |  |  |  |  | 
CN(C)c1ccc(C(=S)c2ccc(N(C)C)cc2)cc1 | 74.8 µM | > 100 µM | > 100 µM | > 100 µM | > 100 µM | > 100 µM | > 100 µM | 42.9 µM | 56.4 µM | 20.6 µM | 3.16 µM | 13.4 µM | 4.17 µM | 3.88 µM | 3.33 µM | 39.1 µM | 9.89 µM | 4.81 µM | 7.1 µM | 3.45 µM
CCOC(=O)/C(=C/CC/C(C)=C/CC/C(C)=C/CCc1ccoc1)CC(=O)N1CCCCC1 | 3.08 µM | 10.3 µM | 7.4 µM | 19.2 µM | 10.2 µM | 14.9 µM | 5.47 µM | 9.62 µM | 20.9 µM | 3.09 µM | 1.27 µM | 2.93 µM | 2.99 µM | 4.59 µM | 2.95 µM | 3.1 µM | 1.87 µM | 2.45 µM | 7.9 µM | 1.66 µM
O=C1C=CC2(CCCCCCC2=O)CC1 (stereo not given) | > 100 µM | > 100 µM | > 100 µM | > 100 µM | > 100 µM | > 100 µM | > 100 µM | > 100 µM | > 100 µM | > 100 µM |  |  |  |  |  |  |  |  |  | 

Reference: PubChem BioAssay (NCI)
